Measurements as given in patent publication US10010560B2, “Small molecule HSP70 inhibitors” (THE TRUSTEES OF THE UNIVERSITY OF PENNSYLVANIA, priority 2014, dated 2018).

Key:
[1] = system: cathepsin L; assay: Western blot of cathepsin L processing; assay type: cell-based; conditions: 24 h treatment
Excerpt: (§1) FIGS. 4A-4L illustrate that PET-16 impairs proteostasis. […] There is a general absence of obvious nuclei in PET-16 treated tumor cells. […] FIGS. 4D and 4E are gels of whole-cell extracts (WCE) prepared from human melanoma A875 (D) or 451 Lu (E) cells treated with DMSO, PES or PET-16 that were immunoprecipitated using an anti-HSP70 antibody. The excised band of about 70 kDa shown in the Coomassie gel is HSP70, as confirmed by liquid chromatography—tandem mass spectrometry analysis. FIGS. 4F-4I are western blots of cell lines were treated with DMSO, PES or PET-16 for 24 h and immunoblotted for the indicated proteins. FIG. 4J are western blots of indicated melanomas pretreated with DMSO, PES or PET-16, followed by treatment with IL-6. Cell extracts were immunoblotted for the proteins indicated. Inhibition of IL-6 induced STAT3 and STAT1 phosphorylation by PET-16. FIG. 4K is a western blot analysis indicating altered processing of cathepsin L from the larger precursor form to the smaller mature form in the indicated cells following PET-16 treatment for 24 h. FIG. 4L is a western blot of the human melanoma 451 Lu cells treated with DMSO, PES or PET-16 for 24 h. Cells were harvested in 1% NP40-containing lysis buffer, fractionated into detergent-soluble and detergent-insoluble preparations, and assayed by western blot for ubiquitin. […]

[2] = system: melanoma tumor cell lines; assay: Cellular ATP levels (AlamarBlue assay) in tumor cells; assay type: cell-based, human
Excerpt: FIGS. 5A-5F illustrates that PET-16 leads to loss of mitochondrial protein Cyclophilin D and impairs bioenergetics in tumor cells. FIGS. 5A-5D are western blots of HSP70, which is present at mitochondria of tumor H1299 cells but not in normal tissue, such as liver. The constitutively expressed 70 kDa family members, HSC70 and GRP75, are present in mitochondria of normal cells. Equal amounts of whole cell (WC)-, cytosolic (cyto)-, and mitochondrial (mito)-extracts prepared from cell lines H1299 (A, C) and MIA PaCa-2 (B) or normal (liver) cells (C, D) were examined by western blot analysis for the presence of the proteins indicated. […] Decreases of AlamarBlue® fluorescence, indicative of mitochondrial damage, are noted in PET-16-treated tumor cells (melanoma tumor cell line WM88 (-), melanoma tumor cell line WM3000 (×), melanoma tumor cell line WM852 (*), human melanoma 451 Lu cells (●), and melanoma tumor cell line WM989 (|), but not normal cells (nontransformed human fibroblasts (IMR90-♦) and primary melanocytes (▪)). Values are normalized to the vehicle-treated cells. Error bars represent standard deviation (s.d.) of four independent experiments.

[3] = target: HSP70 (Homo sapiens, UniProt P0DMV8); assay: B-PES pull-down assay in cultured tumor cells; assay type: cell-based; design: endogenous in cells; conditions: H1299 cells pretreated with excess (8×) compound for 1 h, then 20 μM B-PES
Excerpt: FIGS. 3A-3L illustrate that PET-16 binds directly to ADP-bound HSP70 and DnaK. Specifically, FIGS. 3A-3H are isothermal calorimetric titration (ITC) assays of the indicated compounds (NRLLLTG—SEQ ID NO: 7, PES or PET-16) with purified HSP70-ADP, DnaK-ADP or HSP70-ATP proteins. The data are representative of three independent experiments. FIGS. 3I and 3J are ITC assays for the interaction between HSP70 (aa 386-616 of SEQ ID NO: 2) protein and PET-16 (I) or TPP (J). Binding constants (Kd values) are shown (average and s.d. from three independent experiments). PET-16 also binds directly to the purified, full-length, nucleotide-free HSP70 protein, with a reported dissociation constant of 5.2+/−0.1 micromolar, which is the average and standard deviation from two independent experiments (data not shown). FIG. 3K is ITC assay of HSP70 protein preincubated with ADP and PES for 1 h. The mixture was titrated into the sample cell containing PET-16. The data are representative of three independent ITC experiments. FIG. 3L are western blots of human lung carcinoma (H1299) cells that were pretreated with DMSO or excess (8×) PET-16 for 1 h prior to the addition of 20 μM B-PES for 5 h and examined for the expression of HSP70 or BCL-xL. B-PES-containing complexes were captured by Avidin resins and immunoblotted either with anti-HSP70 or anti-BCL-xL antibody. […]

[4] = system: STAT3 and STAT1; assay: IL-6 induced STAT3 and STAT1 phosphorylation in melanoma cell lines; assay type: cell-based; conditions: cells pre-treated with compound
Excerpt: as §1

[5] = system: BRAF(V600E); assay: Western blot of client proteins in soluble and detergent-insoluble fractions; assay type: cell-based; conditions: melanoma tumor cells, soluble fraction
Experimental: PET-16 promotes the loss of HSP90/HSP70 client proteins from the soluble fraction and the accumulation of some of these client proteins in the protein detergent-insoluble cellular fraction. Human melanoma cell lines (451 Lu, 1205 Lu and WM852) and mouse melanoma cell line (Yumm), as indicated, were treated with DMSO, PES or PET-16 for 24 hours. Cells were fractionated into detergent-soluble and detergent-insoluble preparations and assayed by Western blot (WB) analysis for the proteins indicated. […] The expression of many of these proteins is reduced in the soluble cell fractions, and often the abundance increases in the detergent insoluble fractions. This is indicative of loss of function of the client proteins.
Western blotting, immunoprecipitations and B-PES pull down assays were performed as described in Leu 2009 and Leu 2011. Preparation of biotin-conjugated PES was described in Leu 2009 and Leu 2011; Balaburski, 2013. Liquid chromatography-tandem mass spectrometry was performed by the Genomics Institute and Abramson Cancer Center Proteomics Core Facility at the Perelman School of Medicine, University of Pennsylvania. Electron microscopy (EM) and EM imaging were performed by The Electron Microscopy Resource Laboratory, Biomedical Research Core Facilities, at the Perelman School of Medicine, University of Pennsylvania.

Sequence of HSP70 (P0DMV8 whole entry, the tested form may be a part): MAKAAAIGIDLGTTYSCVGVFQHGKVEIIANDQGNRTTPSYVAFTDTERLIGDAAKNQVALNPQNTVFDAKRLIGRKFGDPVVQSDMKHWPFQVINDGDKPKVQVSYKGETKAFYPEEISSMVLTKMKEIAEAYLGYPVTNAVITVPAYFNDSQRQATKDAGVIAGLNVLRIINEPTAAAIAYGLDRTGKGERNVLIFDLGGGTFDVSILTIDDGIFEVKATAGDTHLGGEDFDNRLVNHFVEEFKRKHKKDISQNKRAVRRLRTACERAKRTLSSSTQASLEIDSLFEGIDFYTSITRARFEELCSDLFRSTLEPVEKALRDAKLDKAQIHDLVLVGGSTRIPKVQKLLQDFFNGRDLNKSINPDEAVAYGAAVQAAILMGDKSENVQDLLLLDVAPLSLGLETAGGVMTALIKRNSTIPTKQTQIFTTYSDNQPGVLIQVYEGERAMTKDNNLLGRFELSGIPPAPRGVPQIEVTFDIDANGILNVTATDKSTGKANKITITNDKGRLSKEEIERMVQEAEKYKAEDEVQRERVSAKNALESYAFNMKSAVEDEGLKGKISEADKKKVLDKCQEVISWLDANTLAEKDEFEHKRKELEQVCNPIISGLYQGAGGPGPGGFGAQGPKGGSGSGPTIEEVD

C(#C[P+](c1ccccc1)(c1ccccc1)c1ccccc1)c1ccccc1.[Br-] [PET-16, triphenyl(phenylethynyl)phosphonium bromide]
cathepsin L processing [1]: accumulation of the precursor procathepsin L and a markedly reduced abundance of the smaller, mature form | AlamarBlue fluorescence (mitochondrial function) [2]: clear decrease | amount of HSP70 in complex with B-PES [3]: clearly reduced | IL-6 mediated phosphorylation of STAT3 and STAT1 [4]: inhibited | BRAF(V600E) protein abundance [5]: reduction
